Test results published in patent US9789181B2, “PAN-DR binding polypeptides and uses thereof” (Epimmune Inc., priority 2009, dated 2017).
Where no end group is shown, it is not given here.

Columns and labels:
[1] = target: HLA DRB1 *0101 (Homo sapiens, UniProt P01903+P01911, A100R/D57E/F55L/F60I/F76Y/I96L/L162R/M171V/P40L/Q125E/R42F/V115G/Y59C); test: IC50nM to purified HLA | DRB1 *0101
Method: (§1) Table printed on a drawing sheet, FIG. 1 (contd.)
Head of the field: IC50nM to purified HLA | DRB1 *0101
(§2) First copying reader's note: Continued from an earlier sheet of FIG. 1; decimal commas as printed, analog names encode substituted residues and positions, and some values are printed in italics or bold and some SEQ ID NOs underlined without a legend on this sheet.
Where the first naming reader finds the target: head: IC50nM to purified HLA | DRB1 *0101

[2] = target: HLA DRB1 *0401 (Homo sapiens, UniProt P01903+P01911, A100K/A169T/F76Y/I96L/K127E/L162R/M171V/N62H/P40V/Q125Y/R42H/S133A/S149N/S66Y/V115G/V209L/W38E); test: IC50nM to purified HLA | DRB1 *0401
Method: as §1
Head of the field: IC50nM to purified HLA | DRB1 *0401
as §2
Where the first naming reader finds the target: head: IC50nM to purified HLA | DRB1 *0401

[3] = target: HLA DRB1 *0405 (Homo sapiens, UniProt P01903+P01911, A100R/A169T/D86S/F76Y/I96L/K127E/L162R/M171V/N62H/P40V/Q125Y/R42H/S133A/S149N/S66Y/V115G/V209L/W38E); test: IC50nM to purified HLA | DRB1 *0405
Method: as §1
Head of the field: IC50nM to purified HLA | DRB1 *0405
as §2
Where the first naming reader finds the target: head: IC50nM to purified HLA | DRB1 *0405

[4] = target: HLA DRB1 *1501 (Homo sapiens, UniProt P01903+P01911); test: IC50nM to purified HLA | DRB1 *1501
Method: as §1
Head of the field: IC50nM to purified HLA | DRB1 *1501
as §2
Where the first naming reader finds the target: head: IC50nM to purified HLA | DRB1 *1501

[5] = target: HLA DRB1 *0404 (Homo sapiens, UniProt P01903+P01911, A100R/A169T/F76Y/I96L/K127E/L162R/M171V/N62H/P40V/Q125Y/R42H/S133A/S149N/S66Y/V209L/W38E); test: IC50nM to purified HLA | DRB1 *0404
Method: as §1
Head of the field: IC50nM to purified HLA | DRB1 *0404
as §2
Where the first naming reader finds the target: head: IC50nM to purified HLA | DRB1 *0404

[6] = target: HLA DRB1 *1101 (Homo sapiens, UniProt P01903+P01911, A100R/A169T/A87E/I96F/K41T/L162R/M171V/P40S/Q125H/Q178H/Q39Y/Q99D/R42S/S66Y/T262R/V115G/W38E); test: IC50nM to purified HLA | DRB1 *1101
Method: as §1
Head of the field: IC50nM to purified HLA | DRB1 *1101
as §2
Where the first naming reader finds the target: head: IC50nM to purified HLA | DRB1 *1101

[7] = target: HLA DRB1 *0301 (Homo sapiens, UniProt P01903+P01911, A100K/A102G/A103R/A169T/F55Y/I96L/K41T/L162R/M171V/P40S/Q125H/Q178H/Q39Y/R42S/S66N/T106N/T262R/W38E/Y61H); test: IC50nM to purified HLA | DRB1 *0301
Method: as §1
Head of the field: IC50nM to purified HLA | DRB1 *0301
as §2
Where the first naming reader finds the target: head: IC50nM to purified HLA | DRB1 *0301

[8] = target: HLA DRB1 *0802 (Homo sapiens, UniProt P01903+P01911, A100R/A103L/A169T/F76Y/H45Y/I96F/K41T/L162R/M171V/P40S/Q125H/Q178H/Q39Y/Q99D/R218S/R42G/S66Y/V115G/W38E); test: IC50nM to purified HLA | DRB1 *0802
Method: as §1
Head of the field: IC50nM to purified HLA | DRB1 *0802
as §2
Where the first naming reader finds the target: head: IC50nM to purified HLA | DRB1 *0802

[9] = target: HLA DRB4 *0101 (Homo sapiens, UniProt P01903+P13762, G164S); test: IC50nM to purified HLA | DRB4 *0101
Method: as §1
Head of the field: IC50nM to purified HLA | DRB4 *0101
as §2
Where the first naming reader finds the target: head: IC50nM to purified HLA | DRB4 *0101

[10] = target: HLA DRB1 *1302 (Homo sapiens, UniProt P01903+P01911, A100E/A169T/K41T/L162R/M171V/P40S/Q125H/Q178H/Q39Y/Q99D/R42S/S66N/T262R/V115G/W38E/Y61H); test: IC50nM to purified HLA | DRB1 *1302
Method: as §1
Head of the field: IC50nM to purified HLA | DRB1 *1302
as §2
Where the first naming reader finds the target: head: IC50nM to purified HLA | DRB1 *1302

[11] = target: HLA DRB1 *0701 (Homo sapiens, UniProt P01903+P01911, A100R/A102G/A103Q/D57E/D86V/E43K/F76Y/K127E/L162R/M171V/P40G/Q125H/Q99D/R33Q/R42Y/R54Q/S133A/S66F/T210M/V115G/Y107V/Y59L/Y89S); test: IC50nM to purified HLA | DRB1 *0701
Method: as §1
Head of the field: IC50nM to purified HLA | DRB1 *0701
as §2
Where the first naming reader finds the target: head: IC50nM to purified HLA | DRB1 *0701

Chain of HLA DRB1 *0301 (P01903 26-254 limits assumed, other chains not shown): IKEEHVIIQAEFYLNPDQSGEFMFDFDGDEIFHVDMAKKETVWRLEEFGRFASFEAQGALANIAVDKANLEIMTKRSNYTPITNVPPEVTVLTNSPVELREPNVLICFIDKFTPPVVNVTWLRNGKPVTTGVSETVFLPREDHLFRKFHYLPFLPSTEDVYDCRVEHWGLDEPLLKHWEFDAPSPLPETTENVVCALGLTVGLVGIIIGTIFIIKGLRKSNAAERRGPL
Chain of HLA DRB1 *1101 (P01903 26-254 limits assumed, other chains not shown): as above
Chain of HLA DRB1 *1302 (P01903 26-254 limits assumed, other chains not shown): as above
Chain of HLA DRB4 *0101 (P01903 26-254 limits assumed): as the sequence (P01903 26-254 limits assumed, other chains not shown) above
Chain of HLA DRB4 *0101 (P13762 whole entry G164S): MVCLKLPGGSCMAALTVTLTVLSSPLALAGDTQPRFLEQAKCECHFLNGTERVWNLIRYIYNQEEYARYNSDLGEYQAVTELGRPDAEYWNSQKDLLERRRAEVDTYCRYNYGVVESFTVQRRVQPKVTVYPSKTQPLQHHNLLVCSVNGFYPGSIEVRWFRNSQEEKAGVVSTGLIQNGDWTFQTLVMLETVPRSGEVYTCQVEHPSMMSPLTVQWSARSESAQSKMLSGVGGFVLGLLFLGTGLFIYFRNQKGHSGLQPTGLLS

| IC50 [1] [nM] | IC50 [2] [nM] | IC50 [3] [nM] | IC50 [4] [nM] | IC50 [5] [nM] | IC50 [6] [nM] | IC50 [7] [nM] | IC50 [8] [nM] | IC50 [9] [nM] | IC50 [10] [nM] | IC50 [11] [nM] | Sequence |
| --- | --- | --- | --- | --- | --- | --- | --- | --- | --- | --- | --- |
| 10 | 4.3 | 13 | 24 | 12 | 74 |  |  |  |  |  | AAANFVAAFTLKADA [SEQ ID NO: 57] |
| 8 |  | 12 |  |  |  | 1540 | 14 | 492 | 1570 |  | AAANFVAAFTLKAEA [SEQ ID NO: 61] |
|  | 3.3 |  | 78 |  | 44 | 319 | 24 |  |  | 76 | AAAQFVAANTLHAAA [SEQ ID NO: 67] |
|  |  | 13 | 13 |  |  | 187 |  |  | 1120 |  | AAAQFVAAWTLHAAA [SEQ ID NO: 64] |
